# Numbers after ± are expanded uncertainties.
# Assays:
# [1] = for Normal melting temperature: DTA
# [2] = Molar enthalpy of transition or fusion; settings: DSC
# [3] = xn = mol fraction of the nth substance listed; settings: 298.15 K, 77 kPa, Crystal of unknown type, Transient plane heat source method
smiles,measurement,setting,value
"O=C(O)CCCCC(=O)O [1,6-hexanedioic acid]",Normal melting temperature,[1]; Crystal,150.17 ± 2 °C
same,Molar enthalpy of transition or fusion,[2]; Crystal,8.57 ± 0.884 kcal/mol
"O=C(O)CCCCCCC(=O)O [1,8-octanedioic acid]",Normal melting temperature,[1]; Crystal 1,140.63 ± 2 °C
same,Triple point temperature,"[1]; Crystal 2, DSC",405.59 ± 2.1 K
same,Molar enthalpy of transition or fusion,[2]; Crystal 1,6.94 ± 0.717 kcal/mol
same,Molar enthalpy of transition or fusion,[2]; Crystal 2,2.07 ± 0.215 kcal/mol
"O=C(O)CCCCCCC(=O)O [1,8-octanedioic acid] + CCCCCCCCCCCCCCCCCC(=O)O",thermal conductivity,[3]; x2 = 0.936,0.172 ± 0.013 W/m/K
"O=C(O)CCCCCCCCC(=O)O [1,10-decanedioic acid]",Normal melting temperature,[1]; Crystal,131.8 ± 2 °C
same,Molar enthalpy of transition or fusion,[2]; Crystal,10.6 ± 1.08 kcal/mol
"O=C(O)CCCCCCCCC(=O)O [1,10-decanedioic acid] + CCCCCCCCCCCCCCCCCC(=O)O",thermal conductivity,[3]; x2 = 0.945,0.1802 ± 0.013 W/m/K
CCCCCCCCCCCCCCCCCC(=O)O [octadecanoic acid],Normal melting temperature,[1]; Crystal,69 ± 2 °C
same,Molar enthalpy of transition or fusion,[2]; Crystal,13.7 ± 1.39 kcal/mol
CCCCCCCCCCCCCCCCCC(=O)O [octadecanoic acid] + O=C(O)CCCCC(=O)O,thermal conductivity,[3]; x1 = 0.962,0.1439 ± 0.011 W/m/K

# Source: the NIST ThermoML archive (doi:10.1016/j.jct.2018.01.008)
